The compounds below were run on genotype A, "Long" strain RSV (assay: RSV-A in vitro cytoprotection assay in HEp-2 cells (ATPlite readout of cell viability)). Conditions: human respiratory syncytial virus, HEp-2, HEp-2 cells, genotype A “Long” strain RSV, cytoprotection; read-out: Human RSV-A (“Long” strain) EC50.
Format: cell-based, Human respiratory syncytial virus
Excerpt: RSV is a single stranded negative sense RNA virus that causes respiratory tract infections which can be dangerous to infants, the elderly, and immunosuppressed individuals. Currently there is no vaccine, and therapeutic options are both costly and of limited effectiveness. These approved treatments are Ribavirin, and Palivizumab/Synagis (a monoclonal antibody). RSV has two genotypes, A and B, which differ primarily in the structure of the virus' surface “G” attachment protein. Our current primary screen focuses on RSV-A and uses an in vitro cytoprotection assay where compounds are added in 2-fold dilutions to cells which are then subjected to fully replicative viral particles. Cell viability is measured several days later along with separate measurements of compound cytotoxicity. This report focuses on the results of our most recent screening of compounds.
HEp-2 cells, (originally derived from tumors grown in irradiated-cortisonised weanling rats that had been injected with epidermoid carcinoma tissue from a person's larynx, but later found to be indistinguishable from HeLa cells by PCR DNA analysis), were used for the culturing of genotype A, “Long” strain RSV. Flasks were inoculated with RSV and viral stocks were collected once cytopathic effect (CPE) was greater than 90%. Viral stocks in 25% sucrose media were snap frozen using liquid nitrogen to increase viral stability. Viral stock titers were quantified by tissue culture infectious dose 50% (TCID50) using 8,000 cells per well and 3-fold viral dilutions across a 96-well plate, cultured for 4 days.
Following extensive parameter testing, the final assay is run as follows: HEp-2 cells are seeded into the inner 60 wells of a 96-well plate at 8,000 cells per well in a volume of 50 μL using Growth Media (DMEM without phenol red, 1% L-Glut, 1% Penn/Strep, 1% nonessential amino acids, 10% FBS). 2-Fold serial dilutions of control and test compounds are added to the wells in duplicate in a total volume of 25 μL. Viral stock is then added to the wells in a volume of 25 μL, bringing the total volume of each well to 100 μL. Each 96-well plate has a control column of 6 wells with cells and virus but no compound (negative control, max CPE), a column with cells but no compound or virus (positive control, minimum CPE), and a column with no cells or virus or compound (background plate/reagent control). The control wells with cells but no virus are given an additional 25 uL of growth media containing an equal quantity of sucrose as those wells receiving the viral stock in order to keep consistent in media and volume conditions. The outer wells of the plate are filled with 125 μL of growth media to act as a thermal and evaporative moat around the test wells. Following a 4-day incubation period, the plates are read using ATPlite (50 uL added per well), which quantifies the amount of ATP (a measure of cell health) present in each well. Assay plates are read using the Envision luminometer. In parallel, cytotoxicity is examined on an additional 96-well plate treated in an identical manner, but substituting the 25 μL of viral stock for 25 μL of growth media. […] EC50 ranges are as follows: A <0.4 μM; B 0.4-0.8 μM; C >0.8 μM.
`Cc1cccc(F)c1NC(=O)c1cc2c(s1)-c1ccccc1N(C(=O)c1cccc(N(C)CCN)n1)CC2` [Example 371] showed an EC50 of 400 to 800 nM.
With `N[C@H]1CCN(c2cccc(C(=O)N3CCc4cc(C(=O)NC5CC5)sc4-c4ccccc43)n2)C1` [Example 37] the EC50 was > 800 nM.
`Cc1cccc(F)c1NC(=O)c1cc2c(s1)-c1ccccc1N(C(=O)c1cccc(-c3coc4ccncc34)n1)CC2` [Example 258] was tested, and the EC50 was > 800 nM.
`O=C(NC1CC1)c1cc2c(s1)-c1ccccc1N(C(=O)c1cncc(N3CCOCC3)n1)CC2` [Example 53] gave an EC50 of 400 to 800 nM.
In the case of `COCCCN(C)c1cccc(C(=O)N2CCc3cc(C(=O)Nc4c(C)cccc4F)sc3-c3ccccc32)n1` [Example 334], the EC50 is reported as > 800 nM.
With `CCS(=O)(=O)CCNc1cccc(C(=O)N2CCc3cc(C(=O)Nc4c(C)cccc4F)sc3-c3ccccc32)n1` [Example 494] the EC50 was < 400 nM.
In the case of `O=C(NC1CC1)c1cc2c(s1)-c1ccccc1N(C(=O)c1cccc(-c3cccnc3N3CCOCC3)n1)CC2` [Example 87], the EC50 is reported as 400 to 800 nM.
Compound `O=C(NC1CC1)c1cc2c(s1)-c1ccccc1N(C(=O)c1cccc(-c3cccc(C(=O)N4CCOCC4)c3)n1)CC2` [Example 69] has an EC50 of 400 to 800 nM.
With `Cc1cccc(F)c1NC(=O)c1cc2c(s1)-c1ccccc1N(C(=O)c1cccc(N3CCCOc4ccccc43)n1)CC2` [Example 404] the EC50 was < 400 nM.
In the case of `Cc1cccc(F)c1NC(=O)c1cc2c(s1)-c1ccccc1N(C(=O)c1cccc(N3CC4(C3)CS(=O)(=O)C4)n1)CC2` [Example 428], the EC50 is reported as > 800 nM.
With `COc1ccc(Oc2cccc(C(=O)N3CCc4cc(C(=O)Nc5c(C)cccc5F)sc4-c4ccccc43)n2)nc1` [Example 408] the EC50 was > 800 nM.
With `Cc1cccc(F)c1NC(=O)c1cc2c(s1)-c1ccccc1N(C(=O)c1cccc(N3CCC[C@H](N)C3=O)n1)CC2` [Example 478] the EC50 was > 800 nM.
For `CC(=O)N1CCN(c2cccc(C(=O)N3CCc4cc(C(=O)NC5CC5)sc4-c4ccccc43)n2)CC1` [Example 20], the EC50 was 400 to 800 nM.
For `COC[C@H]1CCCN1c1cccc(C(=O)N2CCc3cc(C(=O)Nc4c(C)cccc4F)sc3-c3cc(F)ccc32)n1` [Example 359], the EC50 was < 400 nM.
With `Cc1cccc(F)c1NC(=O)c1cc2c(s1)-c1ccccc1N(C(=O)c1ccc(NC(=O)N3CC4(CCOCC4)C3)cc1)CC2` [Example 130] the EC50 was > 800 nM.
For `CCN(CCOC)c1cccc(C(=O)N2CCc3cc(C(=O)Nc4c(C)cccc4F)sc3-c3ccccc32)n1` [Example 348], the EC50 was < 400 nM.
`COc1ncccc1Oc1cccc(C(=O)N2CCc3cc(C(=O)NC4CC4)sc3-c3ccccc32)n1` [Example 394] was tested, and the EC50 was > 800 nM.
`COc1ccccc1CN(C)c1cccc(C(=O)N2CCc3cc(C(=O)NC4CC4)sc3-c3ccccc32)n1` [Example 289] was tested, and the EC50 was > 800 nM.
With `Cc1cccc(F)c1NC(=O)c1cc2c(s1)-c1ccccc1N(C(=O)c1cccc(-c3cncn3C3CCC3)n1)CC2` [Example 199] the EC50 was < 400 nM.
In the case of `O=C(NC1CC1)c1cc2c(s1)-c1ccccc1N(C(=O)c1cccc(-c3cnn(C4CCOCC4)c3)n1)CC2` [Example 76], the EC50 is reported as 400 to 800 nM.
For `Cc1cccc(F)c1NC(=O)c1cc2c(s1)-c1ccccc1N(C(=O)c1cccc(-c3c[nH]nc3C(F)(F)F)n1)CC2` [Example 210], the EC50 was < 400 nM.
For `Cc1cccc(F)c1NC(=O)c1cc2c(s1)-c1ccccc1N(C(=O)c1ccc(-c3cn(S(C)(=O)=O)c4ncccc34)cc1)CC2` [Example 268], the EC50 was > 800 nM.
With `O=C(Nc1cc2c(s1)-c1ccccc1N(C(=O)c1cccc(N3CCOc4ccccc4C3)n1)CC2)NS(=O)(=O)c1ccccc1` [Example 315] the EC50 was > 800 nM.
With `Cc1cccc(F)c1NC(=O)c1cc2c(s1)-c1ccccc1N(C(=O)c1cccc(-c3cnoc3C)n1)CC2` [Example 262] the EC50 was > 800 nM.
With `Cc1cccc(F)c1NC(=O)c1cc2c(s1)-c1ccccc1N(C(=O)c1cccc(NCCS(C)(=O)=O)n1)CC2` [Example 422] the EC50 was > 800 nM.
In the case of `O=C(NC1CC1)c1cc2c(s1)-c1ccccc1N(C(=O)c1cc(N3CCCOCC3)ncn1)CC2` [Example 50], the EC50 is reported as > 800 nM.
For `Cc1cccc(F)c1NC(=O)c1cc2c(o1)-c1ccccc1N(C(=O)c1cccc(-c3c[nH]c4ncccc34)n1)CC2` [Example 274], the EC50 was < 400 nM.
In the case of `O=C(NC1CC1)c1cc2c(s1)-c1ccccc1N(C(=O)c1ccc3nc(CN4CCOCC4)oc3c1)CC2` [Example 11], the EC50 is reported as > 800 nM.
Work on `Cc1cccc(F)c1NC(=O)c1cc2c(s1)-c1ccccc1N(C(=O)c1cccc(-c3ccc4c(c3)COC4)n1)CC2` [Example 192] yielded an EC50 of 400 to 800 nM.
`Cc1cccc(F)c1NC(=O)c1cc2c(s1)-c1ccccc1N(C(=O)c1cccc(N3CCC[C@@H]3c3ccccc3)n1)CC2` [Example 473] was tested, and the EC50 was < 400 nM.
`O=C(NC1CC1)c1cc2c(s1)-c1ccccc1N(C(=O)c1cccc(N3CCC(c4ccccc4)CC3)n1)CC2` [Example 30] was tested, and the EC50 was > 800 nM.
With `Cc1cnc(N2CC3(CCOC3)C2)c(NC(=O)c2ccc(C(=O)N3CCc4cc(C(=O)Nc5c(C)cccc5F)sc4-c4ccccc43)cc2)c1` [Example 140] the EC50 was > 800 nM.
For `Cc1cccc(F)c1NC(=O)c1cc2c(s1)-c1ccccc1N(C(=O)c1cccc(NCCOC(C)C)n1)CC2` [Example 331], the EC50 was < 400 nM.
In the case of `Cc1cccc(F)c1NC(=O)c1cc2c(s1)-c1ccccc1N(C(=O)c1cccc(N3C[C@@H](NC(=O)OC(C)(C)C)C[C@@H]3C)n1)CC2` [Example 389], the EC50 is reported as < 400 nM.
In the case of `Cc1cccc(F)c1NC(=O)c1cc2c(s1)-c1ccccc1N(C(=O)c1cccc(N3Cc4ccccc4OC(C)(C)C3)n1)CC2` [Example 332], the EC50 is reported as < 400 nM.
`O=C(NC1CC1)c1cc2c(s1)-c1ccccc1N(C(=O)c1cccc(N3CCN(C4COC4)CC3)n1)CC2` [Example 27] was tested, and the EC50 was 400 to 800 nM.
`Cc1cccc(F)c1NC(=O)c1cc2c(s1)-c1ccccc1N(C(=O)c1cccc(-c3ccc4c(c3)CNC4=O)n1)CC2` [Example 194] showed an EC50 of 400 to 800 nM.
In the case of `Cc1cccc(F)c1NC(=O)c1cc2c(s1)-c1ccccc1N(C(=O)c1cccc(N3CCC[C@H]3Cc3ccccc3)n1)CC2` [Example 487], the EC50 is reported as 400 to 800 nM.
With `O=C(NC1CC1)c1cc2c(s1)-c1ccccc1N(C(=O)c1cccc(C3CCNCC3)n1)CC2` [Example 55] the EC50 was > 800 nM.
In the case of `COC(C)(C)CN(C)c1cccc(C(=O)N2CCc3cc(C(=O)Nc4c(C)cccc4F)sc3-c3ccccc32)n1` [Example 470], the EC50 is reported as < 400 nM.
`O=C(NC1CC1)c1cc2c(s1)-c1ccccc1N(C(=O)c1cccc(NC3CCOCC3)n1)CC2` [Example 61] was tested, and the EC50 was > 800 nM.
For `COc1ccc(-c2cccc(C(=O)N3CCc4cc(C(=O)NC5CC5)sc4-c4ccccc43)c2)cn1` [Example 6], the EC50 was > 800 nM.
For `COCCN(c1cccc(C(=O)N2CCc3cc(C(=O)Nc4c(C)cccc4F)sc3-c3ccccc32)n1)S(C)(=O)=O` [Example 423], the EC50 was > 800 nM.
Compound `O=C(NC1CC1)c1cc2c(s1)-c1ccccc1N(C(=O)c1cccc(-c3ccc(C4CC4)nc3)n1)CC2` [Example 77] has an EC50 of 400 to 800 nM.
For `Cc1cccc(F)c1NC(=O)c1cc2c(s1)-c1ccccc1N(C(=O)c1cccc(N3C(=O)OC[C@H]3c3ccccc3)n1)CC2` [Example 424], the EC50 was > 800 nM.
In the case of `O=C(NC1CC1)c1cc2c(s1)-c1ccccc1N(C(=O)c1cccc(NCc3ccccn3)n1)CC2` [Example 288], the EC50 is reported as > 800 nM.
`O=C(NC1CC1)c1cc2c(s1)-c1ccccc1N(C(=O)c1cccc(-c3cccnc3N3CCCOCC3)n1)CC2` [Example 88] showed an EC50 of 400 to 800 nM.
`O=C(NC1CC1)c1cc2c(s1)-c1ccccc1N(C(=O)c1cccc(-n3cnc4ncccc43)n1)CC2` [Example 121] was tested, and the EC50 was > 800 nM.
Compound `Cc1cccc(F)c1NC(=O)c1cc2c(s1)-c1ccccc1N(C(=O)c1cccc(-c3cnn(S(=O)(=O)C4CC4)c3C3CC3)n1)CC2` [Example 222] has an EC50 of 400 to 800 nM.
`Cc1cccc(F)c1NC(=O)c1cc2c(s1)-c1ccccc1N(C(=O)c1cccc(N3C(=O)Cc4ccccc43)n1)CC2` [Example 451] was tested, and the EC50 was > 800 nM.
`Cc1cccc(F)c1NC(=O)c1cc2c(s1)-c1ccccc1N(C(=O)c1cccc(N3C[C@@H](NS(C)(=O)=O)C[C@@H]3C)n1)CC2` [Example 392] was tested, and the EC50 was 400 to 800 nM.
Work on `CC(=O)N1CCC(c2cccc(C(=O)N3CCc4cc(C(=O)NC5CC5)sc4-c4ccccc43)n2)CC1` [Example 58] yielded an EC50 of 400 to 800 nM.
With `Cc1cccc(F)c1NC(=O)c1cc2c(s1)-c1ccccc1N(C(=O)c1cccc(-c3cn(C(=O)OC(C)C)nc3C3CC3)n1)CC2` [Example 223] the EC50 was < 400 nM.
`Cc1cccc(F)c1NC(=O)c1cc2c(s1)-c1ccccc1N(C(=O)c1cccc(-c3cn(C(=O)C(C)C)nc3C3CC3)n1)CC2` [Example 225] was tested, and the EC50 was < 400 nM.

Source: patent US10759816B2, “Heterocyclic compounds as RSV inhibitors” (Enanta Pharmaceuticals, Inc., priority 2016, dated 2020)
